Source: patent US12152057B2, “Fusion proteins for inhibiting angiogenesis” (priority 2015, dated 2024)

Assays:
HUVECs = experiment: HUVEC tube formation on matrigel; assay type: cell-based; details: Homo sapiens, 18-hour incubation, read-out: IC50 (μM), inhibition of tube formation
Procedure: HUVECs (1.5×10^4 cells/well) were placed in a 96-well matrigel-coated plate. Six doses of Fusion Protein 1 (0.1 μM, 0.3 μM, 1 μM, 3 μM, 10 μM, and 30 μM) and vehicle were added to each well in growth media under an atmosphere of 5% CO2 at 37° C. After an 18-hour incubation period, morphology of the endothelial cell tubes, which resemble a capillary-like network, were evaluated by photomicroscopy. Disruption (anti-angiogenesis) of total tube length was measured from each photograph and determined relative to the vehicle control group. […] Suramin was used as an anti-angiogenic positive control (Positive Control 5) for all studies.

[1] = tested on: integrin αvβ3 (CHO-αvβ3 cells); experiment: Adhesion of αvβ3-overexpressing CHO cells to fibrinogen; assay type: cell-based; details: CHO-αvβ3 cell adhesion to fibrinogen
Procedure: (§1) The adhesion of αvβ3-overexpressing CHO cells to fibrinogen and α5β1-expressing K562 cells to fibronectin were evaluated in the presence of fusion proteins.
(§2) 96-well Immulon-2 microtiter plates (Costar, Corning, NY) were coated with 100 μL of phosphate-buffered saline (PBS: 10 mM phosphate buffer, 0.15 M NaCl, pH 7.4) containing substrates at a concentration of 50-500 nM, and incubated overnight at 4° C. The substrates and their coating concentrations were fibrinogen (Fg) at 200 μg/mL and fibronectin (Fn) at 25 μg/mL. Non-specific protein binding sites were blocked by incubating each well with 200 μL of heat-denatured 1% bovine serum albumin (BSA) (Calbiochem) at room temperature for 1.5 hours. The heat-denatured BSA was discarded and each well was washed twice with 200 μL of PBS.
(§3) CHO cells that expressed the integrin αvβ3 (CHO-αvβ3) from the same source of Patent Application No. PCT/US2015/46322 were maintained in DMEM. Human erythroleukemia K562 was maintained as written in Patent Application No. PCT/US2015/46322 from ATCC and cultured in Roswell Park Memorial Institute (RPMI)-1640 medium containing 5% FCS. […] Bound cells were quantified by crystal violet staining. […] The resulting absorbance was read at 600 nm and the readings were correlated with the number of adhering cells. […]

[2] = biological target: T1, integrin α5β1 (K562 cells) (Homo sapiens, UniProt P05556+P08648); experiment: Adhesion of α5β1-expressing K562 cells to fibronectin; assay type: cell-based; details: K562 cell adhesion to fibronectin
T1 construct: α5β1-expressing K562 cells to fibronectin; host or cells: K562 human erythroleukemia cells
Procedure: as §1, §2, §3

integrin αvβ3 = integrin αvβ3 (Homo sapiens, UniProt P05106+P06756); experiment: Competitive binding ELISA of soluble integrin αvβ3 to vitronectin; details: vitronectin-coated plate
Procedure: The competitive binding was used to measure the binding affinity of Fusion Protein 1 of the invention to integrin αvβ3.
1 μg/mL victronectin dissolved in coating solution were added to each well of a 96-well ELISA plate, and the plate was incubated overnight at 4° C. The wells were washed twice with PBS buffer, and excess liquid was carefully removed with a paper towel.
Blocking solution (5 g non-fat skim milk in 100 mL 1×PBS) were added to each well, and the plate was incubated at room temperature for 1 hour. The wells were washed twice with 1×PBS buffer.
One hundred microliters […] of the serially diluted samples were added to each well. The plate was covered and incubated on a plate shaker (˜100 rpm) for 1 hour at room temperature. The wells were washed three times with wash buffer (1×PBS, 0.05% Tween-20).
Diluted primary anti-integrin αv antibody was added and incubated, then washed. Horseradish peroxidase-conjugated goat anti-human IgG Fc specific antibodies in blocking solution were added to each well. […]
(§4) The optical density (OD) of each well was determined using an ELISA plate reader at an absorbance wavelength of 450 nm. The absorbance was plotted against the protein concentration of the fusion protein or the control, and the concentration at which the signal was half the maximal inhibition concentration (IC50) was determined.

[3] = tested on: human umbilical vein endothelial cell (HUVEC); experiment: VEGF165-induced HUVEC proliferation assay (MTS); assay type: cell-based; details: VEGF165 8 ng/mL, 72 hours, read-out: IC50 (nM), inhibition of cell proliferation
Procedure: A human umbilical vein endothelial cell (HUVEC) proliferation assay was carried out to test the functionality of the fusion proteins of the invention. A commercially available VEGF Trap, aflibercept (Eylea®, Regeneron), was included as Positive Control 2.
100 μL of a coating solution (1% gelatin in double distilled water) were added to each well of a 96-well ELISA plate, and the plate was incubated for 2 hours or overnight at 37° C. The wells were washed twice with 1×PBS buffer.
3500 counts of human umbilical vein endothelial cells in endothelial cell growth medium were added to each well, and the plate was incubated overnight at 37° C.
Fusion protein samples were diluted in assay buffer (Medium-199 1× Earle's Salts, 10% fetal bovine serum, 10 mM HEPES, lx antibiotic/antimycotic), with a highest protein concentration of 300 nM. The fusion protein samples were mixed with VEGF165 (8 ng/mL), and the mixtures were incubated overnight at room temperature. The wells were then washed with 200 μL of 1×PBS.
100 μL of the VEGF165/sample mixture were added to each well, and the plates were incubated for 72 hours at 37° C. with 5% CO2. […]
The OD of each well was determined using an ELISA plate reader at an absorbance wavelength of 490 nm. […]

[4] = tested on: VEGF-induced leakage in Dutch Belted Rabbits; experiment: Dose-response VEGF-induced retinal leakage in Dutch Belted rabbits (Example 9); assay type: in vivo; details: FA scale 0 (normal) to 4 (severe)
Procedure: Fusion proteins of the invention were tested in an in vivo model of retinal vascular permeability at varying doses to determine their dose-response effectiveness in preventing vascular leakage. In this model, human VEGF165 was intravitreally injected to the vitreous of rabbit eyes to induce retinal leakage.
On Day 1, Dutch Belted rabbits were intravitreally injected with Fusion Protein 1 according to an embodiment of the invention at various doses, vehicle (negative) control, or reference (positive) controls. Vascular leakage was induced by injecting exogenous VEGF165 into the same eyes on Day 3.
FAs were conducted on all dosage groups 3 days after the VEGF-induction (Day 6) to assess leakiness and tortuosity using a scale from 0 (normal) to 4 (severe).
Signs of ocular irritation were scored using the Draize scoring system prior to fusion protein dosing, VEGF induction, and assessments. According to the Draize analysis, all of the rabbit eyes were normal prior to the initiation of dosing. […] There were no drug-related findings evident during the course of the study.

[5] = tested on: VEGF-induced leakage in Dutch Belted Rabbits; experiment: VEGF-induced retinal leakage in Dutch Belted rabbits (Example 8); assay type: in vivo; details: FA scale 0 (normal) to 4 (severe)
Procedure: Fusion proteins of the invention were tested in an in vivo model of vascular permeability to determine their efficacy in preventing vascular leakage. In this model, VEGF was intravitreally injected to the vitreous of rabbit eyes to induce uncontrolled retinal leakage. Aflibercept (Eylea®, Regeneron), a recombinant fusion protein consisting of portions of human VEGFR1 and VEGFR2 fused to the Fc portion of human IgG1, and bevacizumab (Avastin®, Roche), a recombinant humanized monoclonal antibody that blocks angiogenesis by inhibiting VEGF-A were included as Positive Controls 2 and 6, respectively.
Dutch Belted rabbits were anesthetized using isoflurane (3-5%), and their eyes were treated with ophthalmic Betadine solution. The rabbits' eyes were then washed with sterile saline, and lidocaine hydrochloride (2% injectable) or proparacaine (0.5%) was applied to the ocular surface.
On Day 1, Dutch Belted rabbits were intravitreally injected with fusion proteins of the invention, vehicle (negative) control, or reference (positive) controls at predetermined doses using a BD 300 μL insulin syringe (31 ga× 5/16 inch). […]
Signs of ocular irritation were scored using the Draize scoring system prior to fusion protein dosing, VEGF induction, and assessments. […]

human VEGF165 = biological target: T2, human VEGF165 (Homo sapiens, UniProt P15692); experiment: Direct binding ELISA to human VEGF165; details: coated VEGF165 1 μg/mL, read-out: EC50 (nM), binding affinity to VEGF165
T2 sequence (P15692 27-191 isoform P15692-4): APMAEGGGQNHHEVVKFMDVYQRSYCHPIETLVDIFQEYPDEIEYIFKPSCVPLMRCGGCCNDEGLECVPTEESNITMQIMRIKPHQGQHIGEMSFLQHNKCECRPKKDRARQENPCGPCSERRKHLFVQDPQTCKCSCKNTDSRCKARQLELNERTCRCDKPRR
Procedure: A direct binding enzyme-linked immunosorbent assay (ELISA) was used to measure the binding affinity of fusion proteins of the invention to human VEGF165, a splice variant of VEGF-A.
100 μL of a coating solution (1 μg/mL VEGF165 in 1× phosphate buffered saline (PBS), pH 7.2) were added to each well of a 96-well ELISA plate, and the plate was incubated overnight at 4° C. The wells were washed twice with 400 μL of 1×PBS buffer, and excess liquid was carefully removed with a paper towel.
400 μL of a blocking solution (5 g non-fat skim milk in 100 mL 1×PBS) were added to each well, and the plate was incubated at room temperature for 1 hour. The wells were washed twice with 1×PBS buffer.
Fusion protein and control samples were serially diluted three-fold in blocking solution, with a highest protein concentration of 10 nM. 100 μL of the serially diluted samples were added to each well. The plate was covered and incubated on a plate shaker (˜100 rpm) for 1 hour at room temperature. The wells were washed three times with wash buffer (1×PBS, 0.05% Tween-20). […]
as §4, with “effective” for “inhibition”, “(EC50)” for “(IC50)”

T1 sequence (P08648 42-894 limits assumed): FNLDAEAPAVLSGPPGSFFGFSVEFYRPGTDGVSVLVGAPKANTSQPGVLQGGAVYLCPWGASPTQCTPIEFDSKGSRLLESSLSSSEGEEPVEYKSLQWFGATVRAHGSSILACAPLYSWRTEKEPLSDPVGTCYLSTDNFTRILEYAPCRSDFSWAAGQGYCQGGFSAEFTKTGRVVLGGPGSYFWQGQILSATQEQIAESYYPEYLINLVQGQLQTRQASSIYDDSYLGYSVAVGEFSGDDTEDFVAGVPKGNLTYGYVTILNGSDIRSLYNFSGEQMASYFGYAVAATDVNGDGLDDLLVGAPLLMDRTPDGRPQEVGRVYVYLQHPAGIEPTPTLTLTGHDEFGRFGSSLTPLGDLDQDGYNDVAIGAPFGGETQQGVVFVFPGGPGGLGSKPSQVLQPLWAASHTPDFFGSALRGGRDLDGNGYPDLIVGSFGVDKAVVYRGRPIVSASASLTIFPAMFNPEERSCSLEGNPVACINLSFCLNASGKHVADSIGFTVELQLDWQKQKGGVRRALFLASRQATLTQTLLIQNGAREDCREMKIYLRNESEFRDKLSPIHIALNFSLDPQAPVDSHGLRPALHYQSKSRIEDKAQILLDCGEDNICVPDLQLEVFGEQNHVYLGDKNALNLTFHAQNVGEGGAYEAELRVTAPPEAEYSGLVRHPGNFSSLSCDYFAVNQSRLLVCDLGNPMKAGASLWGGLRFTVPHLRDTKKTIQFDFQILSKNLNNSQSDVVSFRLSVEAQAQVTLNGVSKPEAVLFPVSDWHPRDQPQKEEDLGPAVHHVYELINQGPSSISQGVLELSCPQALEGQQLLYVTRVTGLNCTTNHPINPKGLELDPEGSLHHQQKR
T1 sequence (P08648 895-1049 limits assumed): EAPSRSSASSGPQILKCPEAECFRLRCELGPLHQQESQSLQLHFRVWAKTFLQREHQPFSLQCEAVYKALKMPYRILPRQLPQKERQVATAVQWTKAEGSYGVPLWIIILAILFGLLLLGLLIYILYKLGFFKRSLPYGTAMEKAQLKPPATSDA
T1 sequence (P05556 21-798): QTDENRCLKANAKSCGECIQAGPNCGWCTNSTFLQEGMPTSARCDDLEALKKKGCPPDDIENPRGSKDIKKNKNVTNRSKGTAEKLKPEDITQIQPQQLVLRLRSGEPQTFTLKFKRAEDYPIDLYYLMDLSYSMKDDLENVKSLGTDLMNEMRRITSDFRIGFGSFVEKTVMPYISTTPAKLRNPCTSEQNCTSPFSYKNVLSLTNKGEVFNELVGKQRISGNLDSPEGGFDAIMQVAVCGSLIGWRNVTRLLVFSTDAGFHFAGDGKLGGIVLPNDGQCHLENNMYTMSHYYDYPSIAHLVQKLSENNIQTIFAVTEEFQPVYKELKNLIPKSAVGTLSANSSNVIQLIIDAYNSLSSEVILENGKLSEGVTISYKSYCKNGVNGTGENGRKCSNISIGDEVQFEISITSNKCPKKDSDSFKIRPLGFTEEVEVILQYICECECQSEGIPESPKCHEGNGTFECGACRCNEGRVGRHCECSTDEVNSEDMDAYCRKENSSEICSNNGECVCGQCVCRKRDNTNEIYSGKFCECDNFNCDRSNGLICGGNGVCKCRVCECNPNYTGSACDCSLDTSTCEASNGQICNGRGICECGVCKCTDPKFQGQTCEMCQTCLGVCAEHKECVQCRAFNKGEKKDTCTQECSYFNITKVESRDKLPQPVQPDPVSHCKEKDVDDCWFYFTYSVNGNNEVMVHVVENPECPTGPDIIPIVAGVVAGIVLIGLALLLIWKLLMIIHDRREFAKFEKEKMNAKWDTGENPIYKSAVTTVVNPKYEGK
Sequence of integrin αvβ3 (P06756 31-889 limits assumed): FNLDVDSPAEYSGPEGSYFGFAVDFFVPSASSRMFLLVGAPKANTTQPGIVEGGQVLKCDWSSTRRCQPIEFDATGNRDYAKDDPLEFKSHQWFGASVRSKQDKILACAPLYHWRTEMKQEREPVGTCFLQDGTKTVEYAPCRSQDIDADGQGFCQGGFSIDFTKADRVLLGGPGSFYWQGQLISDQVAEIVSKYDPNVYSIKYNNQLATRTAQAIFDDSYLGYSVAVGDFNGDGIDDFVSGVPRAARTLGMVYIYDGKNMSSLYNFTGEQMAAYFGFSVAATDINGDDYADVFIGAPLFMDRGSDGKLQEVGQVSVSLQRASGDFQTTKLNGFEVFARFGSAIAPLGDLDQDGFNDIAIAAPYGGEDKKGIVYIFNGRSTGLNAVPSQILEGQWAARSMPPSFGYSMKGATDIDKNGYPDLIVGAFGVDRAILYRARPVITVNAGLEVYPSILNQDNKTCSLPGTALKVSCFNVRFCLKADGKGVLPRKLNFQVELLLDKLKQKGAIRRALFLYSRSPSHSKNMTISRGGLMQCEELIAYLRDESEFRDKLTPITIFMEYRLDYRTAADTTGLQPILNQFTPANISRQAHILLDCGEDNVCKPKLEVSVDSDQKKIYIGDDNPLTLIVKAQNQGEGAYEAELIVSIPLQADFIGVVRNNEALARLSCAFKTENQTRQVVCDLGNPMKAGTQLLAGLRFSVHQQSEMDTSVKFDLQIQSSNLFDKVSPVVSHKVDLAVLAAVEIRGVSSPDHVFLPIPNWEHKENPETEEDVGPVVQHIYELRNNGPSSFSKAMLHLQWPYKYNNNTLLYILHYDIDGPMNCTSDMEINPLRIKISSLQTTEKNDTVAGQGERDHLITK
Sequence of integrin αvβ3 (P06756 891-992 limits assumed): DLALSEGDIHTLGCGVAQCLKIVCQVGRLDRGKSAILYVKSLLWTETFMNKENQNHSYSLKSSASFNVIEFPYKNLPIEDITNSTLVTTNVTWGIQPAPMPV
Sequence of integrin αvβ3 (P05106 27-718 limits assumed): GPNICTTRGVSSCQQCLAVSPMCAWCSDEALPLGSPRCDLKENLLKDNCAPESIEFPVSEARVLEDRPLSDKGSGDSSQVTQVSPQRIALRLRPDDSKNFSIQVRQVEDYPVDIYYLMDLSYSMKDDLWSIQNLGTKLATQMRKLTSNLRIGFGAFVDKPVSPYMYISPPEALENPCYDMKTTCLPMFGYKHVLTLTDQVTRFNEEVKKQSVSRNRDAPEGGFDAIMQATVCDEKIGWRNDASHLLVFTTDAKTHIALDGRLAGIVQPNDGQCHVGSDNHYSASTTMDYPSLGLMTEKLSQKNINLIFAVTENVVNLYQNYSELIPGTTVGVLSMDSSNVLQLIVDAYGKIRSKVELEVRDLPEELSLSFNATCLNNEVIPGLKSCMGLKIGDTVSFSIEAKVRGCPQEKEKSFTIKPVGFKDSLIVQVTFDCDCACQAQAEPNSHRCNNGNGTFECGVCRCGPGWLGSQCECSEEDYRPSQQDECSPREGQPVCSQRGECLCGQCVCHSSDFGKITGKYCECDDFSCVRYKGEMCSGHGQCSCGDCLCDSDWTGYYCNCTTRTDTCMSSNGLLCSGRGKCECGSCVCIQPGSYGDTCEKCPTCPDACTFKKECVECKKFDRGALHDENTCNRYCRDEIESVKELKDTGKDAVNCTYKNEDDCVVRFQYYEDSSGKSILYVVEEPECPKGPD

**Q.** Which IC50 (HUVECs) does the source give for `Cc1ccc(C(=O)Nc2ccc(S(=O)(=O)O)c3cc(S(=O)(=O)O)cc(S(=O)(=O)O)c23)cc1NC(=O)c1cccc(NC(=O)Nc2cccc(C(=O)Nc3cc(C(=O)Nc4ccc(S(=O)(=O)O)c5cc(S(=O)(=O)O)cc(S(=O)(=O)O)c45)ccc3C)c2)c1` [Positive Control 5, Suramin] here?
**A.** 15.8 µM

**Q.** Which IC50 [1] does the source give for Rhodostomin [Positive Control 3] here?
**A.** 24.7 nM

**Q.** And the IC50 [2]?
**A.** 252 nM

**Q.** And the IC50 (integrin αvβ3)?
**A.** 2.6 to 3.2 nM

**Q.** With aflibercept [Positive Control 2] as the compound, how does the IC50 [3] read?
**A.** 0.026 to 0.136 nM

**Q.** What about the “Day 6 Mean Leakage Score” value ([4]; Example 9, intravitreal dose 625 μg) of the same compound?
**A.** 0

**Q.** And the “Day 6 Mean Leakage Score” value ([5]; Example 8, intravitreal dose 625 μg)?
**A.** 0

**Q.** What about the EC50 (human VEGF165) of the same compound?
**A.** 0.088 to 0.195 nM

**Q.** Which results are given for bevacizumab [Positive Control 6]?
**A.** Day 6 Mean Leakage Score ([4]; Example 9, intravitreal dose 1250 μg): 0.17; Day 6 Mean Leakage Score ([5]; Example 8, intravitreal dose 1250 μg): 0.25
